For test [1], the target named is T1, MMP-1 (Homo sapiens, UniProt P03956).
T1 construct: purchased Washington University School of Medicine, St. Louis, Mo
T1 sequence (P03956 100-469): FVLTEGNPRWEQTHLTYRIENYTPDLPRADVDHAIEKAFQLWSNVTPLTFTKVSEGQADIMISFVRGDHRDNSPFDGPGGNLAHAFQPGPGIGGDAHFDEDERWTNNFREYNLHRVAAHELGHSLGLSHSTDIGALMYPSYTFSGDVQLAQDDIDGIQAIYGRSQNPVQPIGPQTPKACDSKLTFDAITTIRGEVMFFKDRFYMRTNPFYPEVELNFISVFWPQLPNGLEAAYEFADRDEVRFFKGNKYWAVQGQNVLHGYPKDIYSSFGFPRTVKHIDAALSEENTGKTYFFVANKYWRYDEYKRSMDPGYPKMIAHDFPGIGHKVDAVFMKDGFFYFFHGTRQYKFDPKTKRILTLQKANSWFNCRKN
Put plainly: Thiopeptolide assay, MMP-1. Conditions: full-length enzyme, 5 nM; pH 7.0; 100 μM thiopeptolide substrate. The test is classed as biochemical. On the procedure:
(§1) IC50 values were determined using a thiopeptolide substrate, Ac-Pro-Leu-Gly-thioester-Leu-Leu-Gly-OEt (Ye Q. Z., Johnson L. L., Hupe D. J., and Baragi V., "Purification and Characterization of the Human Stromelysin Catalytic Domain Expressed in Escherichia coli," Biochemistry,1992;31:11231-11235). MMP-1, MMP-7, and MMP-13 activity was assayed in a method similar to MMP-2 and MMP-3 (SCD and GCD). MMP-1 can be obtained from Washington University School of Medicine, St. Louis, Mo. MMP-7 can be obtained in accordance with the known procedure set forth by Ye Q. Z., Johnson L. L., and Baragi V., "Gene Syntheses and Expression in E. coli for PUMP, a Human Matrix Metalloproteinase," Biochem. and Biophys. Res. Comm., 1992;186:143-149. MMP13 can be obtained in accordance with the known procedure set forth by Freije J. M. P. et al., "Molecular Cloning and Expression of Collegenase-3, a Novel Human Matrix Metalloproteinase Produced by Breast Carcinomas," J. Bio. Chem., 1994;269:16766-16773.
(§2) Hydrolysis of the thiopeptolide substrate Ac-Pro-Leu-Gly-thioester-Leu-Leu-Gly-OEt (Bachem) is used as the primary screen to determine IC50 values for MMP inhibitors. A 100 μL reaction contains 1 mM 5,5'-dithiobis(2-nitrobenzoic acid) (DTNB), 100 μM substrate, 0.1% BRIJ® 35, PROTEIN GRADE®, Detergent, 10% solution, Sigma, St. Louis, Mo. [polyoxyethyleneglycol dodecyl ether; polyoxyethylene (23) lauryl ether], enzyme, and inhibitor in the appropriate reaction buffer. Activated full-length enzymes are assayed at 5 nM, Stromelysin Catalytic Domain (SCD) at 10 nM, and Gelatinase A Catalytic Domain (GaCD) at 1 nM. Inhibitors are screened from 100 μM to 1 nM. Full-length enzymes (MMP-1 and MMP-7) are assayed in 50 mM HEPES, 10 mM CaCl2, pH 7.0; SCD in 50 mM MES, 10 mM CaCl2, pH 6.0; and GaCD in 50 mM MOPS, 10 mM CaCl2, 10 μM ZnCl2, pH 7.0. The change in absorbance at 405 nm is monitored on a ThermoMax microplate reader at room temperature continuously for 20 minutes.

In test [2] the target is MMP-2CD. Put plainly: Thiopeptolide assay, gelatinase A catalytic domain (GCD/GaCD). Type of test: biochemical. Conditions: 1 nM, pH 7.0, 100 μM thiopeptolide substrate. On the procedure: as §1, §2
Test [3] has as its target T2, MMP-3CD (Homo sapiens, UniProt P08254).
T2 construct: Stromelysin Catalytic Domain (SCD) at 10 nM; made in house; host or cells: Escherichia coli
Put plainly: Thiopeptolide assay, stromelysin-1 catalytic domain (SCD). Type of test: biochemical. Conditions: 10 nM, pH 6.0, 100 μM thiopeptolide substrate. On the procedure:
as §1, §2

Test [4] deals with T3, MMP-7 (Homo sapiens, UniProt P09237).
T3 construct: made in house; host or cells: E. coli
T3 sequence (P09237 95-267): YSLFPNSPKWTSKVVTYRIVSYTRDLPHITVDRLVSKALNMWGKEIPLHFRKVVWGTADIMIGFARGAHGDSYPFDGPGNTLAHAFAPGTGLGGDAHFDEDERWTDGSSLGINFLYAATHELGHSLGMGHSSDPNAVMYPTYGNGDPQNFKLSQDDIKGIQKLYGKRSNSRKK
Put plainly: Thiopeptolide assay, MMP-7. Conditions: full-length enzyme, 5 nM; pH 7.0; 100 μM thiopeptolide substrate. The test is classed as biochemical. On the procedure: as §1, §2

The target in test [5] is MMP-9 (Homo sapiens, UniProt P14780). Put plainly: Thiopeptolide assay, MMP-9. The conditions noted are these: thiopeptolide substrate. The test is classed as biochemical. On the procedure:
[The source words this procedure for another target and reports this target under the same test.] as §1, §2

Test [6] deals with MMP-13CD. Put plainly: Thiopeptolide assay, MMP-13CD. The test is classed as biochemical, Human. Conditions: catalytic domain; thiopeptolide substrate. On the procedure: as §1, §2
The subject of test [7] is MMP-14CD. Put plainly: Thiopeptolide assay, MMP-14CD. Type of test: biochemical. The conditions noted are these: catalytic domain; thiopeptolide substrate. On the procedure:
as §1, §2

Some results are limits rather than exact numbers.

T2 sequence (P08254 100-272 limits assumed): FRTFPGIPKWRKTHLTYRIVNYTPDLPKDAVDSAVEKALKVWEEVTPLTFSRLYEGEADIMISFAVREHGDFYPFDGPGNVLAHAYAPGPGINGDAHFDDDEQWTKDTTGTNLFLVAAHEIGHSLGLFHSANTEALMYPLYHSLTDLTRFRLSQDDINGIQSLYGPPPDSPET
MMP-9, sequence (P14780 94-707): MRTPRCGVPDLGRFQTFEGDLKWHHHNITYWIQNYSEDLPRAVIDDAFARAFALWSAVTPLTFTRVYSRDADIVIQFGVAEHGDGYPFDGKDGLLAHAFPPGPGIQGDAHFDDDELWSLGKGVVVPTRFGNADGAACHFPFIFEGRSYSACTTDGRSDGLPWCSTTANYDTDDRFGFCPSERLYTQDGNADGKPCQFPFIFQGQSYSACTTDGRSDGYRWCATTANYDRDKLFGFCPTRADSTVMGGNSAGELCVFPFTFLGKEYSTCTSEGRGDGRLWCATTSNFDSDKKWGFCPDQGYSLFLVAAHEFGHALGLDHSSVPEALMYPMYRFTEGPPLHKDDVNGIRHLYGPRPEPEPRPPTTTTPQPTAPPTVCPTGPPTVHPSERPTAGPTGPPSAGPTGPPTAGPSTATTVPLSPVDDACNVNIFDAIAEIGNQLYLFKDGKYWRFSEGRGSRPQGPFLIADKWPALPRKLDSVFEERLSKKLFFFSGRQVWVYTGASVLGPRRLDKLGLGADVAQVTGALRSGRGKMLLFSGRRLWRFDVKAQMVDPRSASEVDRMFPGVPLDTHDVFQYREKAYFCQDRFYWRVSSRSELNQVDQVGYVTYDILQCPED

In general, IC50 refers to the concentration that gives 50% inhibition. With `O=C(O)[C@H](CCc1ccccc1)NS(=O)(=O)c1ccc2c(c1)S(=O)(=O)c1ccccc1O2` [Example 7, (S)-2-(10,10-Dioxo-10H-10λ^6-phenoxathiine-2-sulfonylamino)-4-phenyl-butyric acid], the IC50 in test [1] was above 100 µM; in test [2], 2.3 µM; in test [3], 3.75 µM; in test [4], 24 µM; in test [5] it was above 100 µM; in test [6] it was 73 µM. This molecule returned an IC50 in test [7] of 3.7 µM.
Turning to `CC(C)[C@@H](NS(=O)(=O)c1ccc2c(c1)Sc1ccccc1O2)C(=O)O` [Example 8, (R)-3-Methyl-2-(phenoxathiine-2-sulfonylamino)-butyric acid], the IC50 in test [1] worked out at 6.25 µM; in test [2], 0.027 µM; in test [3], 0.0155 µM; in test [4] it was 19 µM; in test [5] it was 12 µM; in test [6] it was 0.27 µM. In test [7], this molecule displayed an IC50 of 0.155 µM.
With `O=C(O)[C@@H](NS(=O)(=O)c1ccc2c(c1)Sc1ccccc1O2)c1ccccc1` [Example 17, (S)-(Phenoxathiine-2-sulfonylamino)-phenyl-acetic acid], the IC50 in test [1] is above 100 µM; in test [2], 0.15 µM; in test [3], 2 µM; in test [4], above 100 µM; in test [5], above 100 µM; in test [6], 12 µM. For the same molecule, the IC50 in test [7] was determined as 0.94 µM.
Regarding `C[C@H](NS(=O)(=O)c1ccc2c(c1)Sc1ccccc1O2)C(=O)O` [Example 9, (S)-2-(Phenoxathiine-2-sulfonylamino)-propionic acid], the IC50 came to 76 µM in test [1]; 0.033 µM in test [2]; 0.295 µM in test [3]; 19 µM in test [4]; 23 µM in test [5]; 5.25 µM in test [6]. The same molecule registered an IC50 in test [7] of 0.19 µM.
Take `O=C(O)[C@H](Cc1ccccc1)NS(=O)(=O)c1ccc2c(c1)Sc1ccccc1O2` [Example 12, (S)-2-(Phenoxathiine-2-sulfonylamino)-3-phenyl-propionic acid]: the IC50 in test [1] was above 100 µM; in test [2], 0.17 µM; in test [3], 0.35 µM; in test [4], 91 µM; in test [5], above 100 µM; in test [6] it was 8.7 µM. Moreover, in test [7], inhibition was half-maximal at 0.5 µM (IC50).
Turning to `O=C(O)[C@H](Cc1ccc(O)cc1)NS(=O)(=O)c1ccc2c(c1)Sc1ccccc1O2` [Example 14, (S)-3-(4-Hydroxy-phenyl)-2-(phenoxathiine-2-sulfonylamino)-propionic acid], the IC50 in test [1] was found to be 87 µM; in test [2], 0.09 µM; in test [3], 0.12 µM; in test [4] it was 17 µM; in test [5] it was 18 µM; in test [6], 2.3 µM. The same molecule gave an IC50 in test [7] of 0.2 µM.
As for `O=C(O)[C@H](Cc1c[nH]c2ccccc12)NS(=O)(=O)c1ccc2c(c1)Sc1ccccc1O2` [Example 15, (S)-3-(1H-Indol-3-yl)-2-(phenoxathiine-2-sulfonylamino)-propionic acid], the IC50 in test [1] is above 100 µM; in test [2] it was 0.91 µM; in test [3] it was 0.86 µM; in test [4] it was 54 µM; in test [5], above 100 µM; in test [6], 16 µM. In addition, in test [7], the IC50 turned out to be 3.8 µM.
Consider `O=C(O)[C@H](CSC(c1ccccc1)(c1ccccc1)c1ccccc1)NS(=O)(=O)c1ccc2c(c1)Sc1ccccc1O2` [Example 13, (R)-2-(Phenoxathiine-2-sulfonylamino)-3-tritylsulfanyl-propionic acid], for which the IC50 is above 100 µM in test [1]; 3.2 µM in test [2]; 4.65 µM in test [3]; 66 µM in test [4]; above 100 µM in test [5]; 36 µM in test [6]. In test [7], this molecule showed an IC50 of 7.4 µM.
As for `CC(C)[C@H](NS(=O)(=O)c1ccc2c(c1)Sc1ccccc1O2)C(=O)O` [Example 4, (S)-3-Methyl-2-(phenoxathiine-2-sulfonylamino)-butyric acid], the IC50 stood at 39 µM in test [1], 0.053 µM in test [3], 6.7 µM in test [4] and 19 µM in test [5].
For `O=C(O)[C@H](CCc1ccccc1)NS(=O)(=O)c1ccc2c(c1)Cc1ccccc1O2` [Example 3, (S)-4-Phenyl-2-(9H-xanthene-2-sulfonylamino)-butyric acid], the IC50 in test [1] is above 100 µM; in test [2] it was 0.2 µM; in test [3], 0.068 µM; in test [4], 3.2 µM; in test [5], above 100 µM; in test [6], 0.5 µM. Besides, the IC50 in test [7] came out at 1 µM.
Take `O=C(O)[C@H](CO)NS(=O)(=O)c1ccc2c(c1)Cc1ccccc1O2` [Example 6, (S)-3-Hydroxy-2-(9H-xanthene-2-sulfonylamino)-propionic acid]: the IC50 is above 100 µM in test [1]; 0.65 µM in test [2]; 0.44 µM in test [3]; 34 µM in test [4]; above 100 µM in test [5]; 4.3 µM in test [6]. The molecule further displayed an IC50 in test [7] of 4.1 µM.
For `O=C(O)[C@H](CCc1ccccc1)NS(=O)(=O)c1ccc2c(c1)Sc1ccccc1O2` [Example 2, (S)-2-(Phenoxathiine-2-sulfonylamino)-4-phenyl-butyric acid], the IC50 in test [1] is above 100 µM; in test [2], 0.033 µM; in test [3], 0.054 µM; in test [4] it was 7.9 µM; in test [5], 16.6 µM; in test [6] it was 1.39 µM. For the same molecule, the midpoint of inhibition in test [7], the IC50, lay at 0.092 µM.
In the case of `C[S+]([O-])CC[C@H](NS(=O)(=O)c1ccc2c(c1)Sc1ccccc1O2)C(=O)O` (stereo partly drawn) [Example 10, (S)-4-Methanesulfinyl-2-(phenoxathiine-2-sulfonylamino)-butyric acid], the concentration for half-maximal inhibition (IC50) in test [1] was 72 µM; in test [2], 0.0585 µM; in test [3] it was 0.165 µM; in test [4] it was 9.15 µM; in test [5], 38 µM; in test [6], 4.1 µM. The same molecule came in with an IC50 in test [7] of 0.285 µM.
Turning to `CC(C)C[C@H](NS(=O)(=O)c1ccc2c(c1)Sc1ccccc1O2)C(=O)O` [Example 11, (S)-4-Methyl-2-(phenoxathiine-2-sulfonylamino)-pentanoic acid], the IC50 in test [1] was 55 µM; in test [2], 0.0235 µM; in test [3] it was 0.0625 µM; in test [4], 8.7 µM; in test [5], 18 µM; in test [6], 3.9 µM. Besides, in test [7], the midpoint of inhibition, the IC50, lay at 0.3 µM.
Regarding `NC(=O)C[C@H](NS(=O)(=O)c1ccc2c(c1)Sc1ccccc1O2)C(=O)O` [Example 16, (S)-2-(Phenoxathiine-2-sulfonylamino)-succinamic acid], the IC50 in test [1] was above 100 µM; in test [2] it was 0.113 µM; in test [3], 0.41 µM; in test [4] it was 14 µM; in test [5] it was 53 µM; in test [6], 4.4 µM. Further, half-maximal inhibition in test [7] (IC50) required 1.55 µM.
